“And” between values parts separate entries of the source, which are not always exact repeats. Equal values may be shown once. Read-outs that look alike come from different tables or passages of the source. Bounds are passed on as bounds.

These results are taken from US10702486B2, “Treatment of CNS disorders with trans 4-(3,4-dichlorophenyl)-1,2,3,4-tetrahydro-1-naphthalenamine” (SUNOVION PHARMACEUTICALS INC., priority 2002, dated 2020).

Assay [1] has as its target T1, functional uptake of dopamine (DA) (Rattus norvegicus, UniProt P23977).
T1 construct: synaptosomes isolated at Cerep in a 0.32 M sucrose buffer from a male Wistar rat striatum; tissue Cerep; host or cells: male Wistar rat striatum synaptosomes
Briefly: Dopamine functional uptake assay in rat striatum synaptosomes. The class given is biochemical. The note with it: for IC50: rat striatum synaptosomes, [3H]-dopamine, 15 minutes at 37° C.; for inhibition at 10 µM: tested initially at 10 μM in duplicate, read-out: inhibition of DA uptake (no IC50), Table 1.
Description: Dopamine Functional Uptake Assay
Characterization of dopamine uptake is performed using synaptosomes isolated at Cerep in a 0.32 M sucrose buffer from a male Wistar rat striatum. The uptake of radiolabelled dopamine by synaptosomes (20 μg of proteins/point) is allowed by incubating them for 15 minutes at 37° C. in presence of test compounds and [^3H]-dopamine (0.1 μCi/point). The experiment is performed in a deep well. Synaptosomes and [^3H]-dopamine are prepared in a Krebs buffer pH 7.4 containing 25 mM NaHCO3, 11 mM glucose and 50 μM ascorbic acid. This incubation buffer is oxygenated during 5 minutes before incubation. Basal control is incubated for 15 minutes at 4° C. in order to avoid any uptake. Following this incubation the uptake is stopped by filtration through an “unifilter 96-wells GFB Packard plate” washed with Krebs buffer containing 25 mM NaHCO3 in order to eliminate free [^3H]-dopamine. The radioactivity associated to the synaptosomes retained onto the unifilter corresponding to the uptake is then measured with a microplate scintillation counter Topcount, Packard using a scintillation liquid microscint 0, Packard.

For assay [2], the target named is T2, functional uptake of serotonin (5-HT) (Rattus norvegicus, UniProt P31652).
T2 construct: synaptosomes isolated in a 0.32M sucrose buffer from a male Wistar rat cortex; from tissue
T2 sequence (P31652 whole entry): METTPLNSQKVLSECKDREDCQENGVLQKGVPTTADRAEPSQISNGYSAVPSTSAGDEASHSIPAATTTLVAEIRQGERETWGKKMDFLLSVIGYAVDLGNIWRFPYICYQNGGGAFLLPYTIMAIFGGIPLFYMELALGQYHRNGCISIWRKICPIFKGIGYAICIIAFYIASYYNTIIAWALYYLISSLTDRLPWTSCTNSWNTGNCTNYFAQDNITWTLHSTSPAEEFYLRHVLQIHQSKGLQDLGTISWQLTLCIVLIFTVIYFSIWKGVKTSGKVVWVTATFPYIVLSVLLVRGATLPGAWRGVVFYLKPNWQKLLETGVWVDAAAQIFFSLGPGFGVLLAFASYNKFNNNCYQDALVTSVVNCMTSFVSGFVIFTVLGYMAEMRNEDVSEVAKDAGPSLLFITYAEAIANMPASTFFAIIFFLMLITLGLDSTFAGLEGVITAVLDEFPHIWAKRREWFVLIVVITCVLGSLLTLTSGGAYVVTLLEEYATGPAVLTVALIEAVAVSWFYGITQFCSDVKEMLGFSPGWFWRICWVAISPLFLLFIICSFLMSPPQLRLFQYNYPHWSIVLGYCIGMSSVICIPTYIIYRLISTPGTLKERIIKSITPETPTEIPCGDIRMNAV
Briefly: Serotonin functional uptake assay in rat synaptosomes. It is filed as biochemical. Particulars: for inhibition at 10 µM: tested initially at 10 μM in duplicate.
Description: (§1) The compounds of the invention were tested for their inhibition of functional uptake of serotonin (5-HT), norepinephrine (NE), or dopamine (DA), in synaptosomes prepared from rat whole brain, hypothalamus, or corpus striatum, respectively.
Serotonin Functional Uptake Assay
Characterization of serotonin uptake is performed using synaptosomes isolated in a 0.32M sucrose buffer from a male Wistar rat cortex. The uptake of radiolabelled serotonin by synaptosomes (100 μg of proteins/point) is allowed by incubating them in a deep well for 15 min at 37° C. in presence of test compounds and [^3H]5-hydroxytryptamine (0.1 μCi/point).
Synaptosomes and [^3H]5-hydroxytryptamine are prepared in a Krebs buffer pH 7.4 containing 25 mM NaHCO3, 11 mM glucose and 50 μM ascorbic acid. This incubation buffer is oxygenated during 5 minutes before incubation. Basal control is incubated for 15 minutes at 4° C. in order to avoid any uptake. Following this incubation the uptake is stopped by filtration through an “unifilter 96-wells GFB Packard plate” washed with Krebs buffer containing 25 mM NaHCO3 in order to eliminate the free [^3H]5-hydroxytryptamine. The radioactivity associated to the synaptosomes retained onto the unifilter corresponding to the uptake is then measured with a microplate scintillation counter Topcount, Packard using a scintillation liquid microscint 0, Packard.

Assay [3] concerns the target functional uptake of norepinephrine (NE) (Rattus norvegicus, UniProt Q9WTR4). Briefly: Norepinephrine functional uptake assay in rat hypothalamus synaptosomes. The class given is biochemical. The note with it: [3H]-norepinephrine, 20 minutes at 37° C.
Description: as §1
Norepinephrine Functional Uptake Assay
Characterization of norepinephrine uptake is performed using synaptosomes isolated at Cerep in a 0.32 M sucrose buffer from a male Wistar rat hypothalamus. The uptake of radiolabeled norepinephrine by synaptosomes (100 μg of proteins/point) is allowed by incubating them for 20 minutes at 37° C. in presence of test compounds and [^3H]-norepinephrine (0.1 μCi/point). The experiment is performed in a deep well.
Synaptosomes and [^3H]-norepinephrine are prepared in a Krebs buffer pH 7.4 containing 25 mM NaHCO3, 11 mM glucose and 50 μM ascorbic acid. This incubation buffer is oxygenated during 5 minutes before incubation. Basal control is incubated for 20 minutes at 4° C. in order to avoid any uptake. Following this incubation the uptake is stopped by filtration through an “unifilter 96-wells GFB “Packard plate washed with Krebs buffer containing 25 mM NaHCO3 in order to eliminate the free [^3H]-norepinephrine. The radioactivity associated to the synaptosomes retained onto the unifilter corresponding to the uptake is then measured with a microplate scintillation counter Topcount, Packard using a scintillation liquid microscint 0, Packard.
Assay [4] can be described thus: Behavioral Despair Test in Mice. It is filed as in vivo. More on the design: key to Dunnett, significance vs vehicle: * indicates a significant difference vs vehicle for P < 0.05 (Dunnett test).
For assay [5] the following is noted: Hamelin et al. 1996; Serebruany et al. 2001; cited from earlier work.
The mark [6] stands for this setting: 10 mg/kg, N = 10, E intraperitoneal.
[7] abbreviates: 50 mg/kg intraperitoneal, N = 10.

T1 sequence (P23977 whole entry): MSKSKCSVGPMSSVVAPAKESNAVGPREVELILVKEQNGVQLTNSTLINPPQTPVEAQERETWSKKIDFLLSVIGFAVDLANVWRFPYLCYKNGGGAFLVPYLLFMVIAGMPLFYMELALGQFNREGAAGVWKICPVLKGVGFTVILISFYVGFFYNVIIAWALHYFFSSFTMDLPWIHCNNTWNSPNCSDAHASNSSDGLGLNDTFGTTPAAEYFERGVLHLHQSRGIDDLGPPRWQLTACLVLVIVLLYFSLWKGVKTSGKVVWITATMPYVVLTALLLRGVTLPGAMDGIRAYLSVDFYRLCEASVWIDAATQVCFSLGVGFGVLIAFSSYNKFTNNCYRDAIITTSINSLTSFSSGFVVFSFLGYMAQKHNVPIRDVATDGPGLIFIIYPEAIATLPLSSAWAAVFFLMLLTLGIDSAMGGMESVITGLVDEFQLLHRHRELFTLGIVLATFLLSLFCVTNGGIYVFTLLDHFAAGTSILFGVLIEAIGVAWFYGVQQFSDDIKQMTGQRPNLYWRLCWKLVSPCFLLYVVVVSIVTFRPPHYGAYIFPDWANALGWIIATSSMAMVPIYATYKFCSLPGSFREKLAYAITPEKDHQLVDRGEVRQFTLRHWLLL

For the compound `O=CN[C@@H]1CC[C@@H](c2ccc(Cl)c(Cl)c2)c2ccccc21` (racemic) [F, N-[4-(3,4-dichlorophenyl)-1,2,3,4-tetrahydronaphthalen-1-yl]formamide], the values for the IC50 in assay [1] and in assay [3] were 0.53 µM and 3.9 µM, respectively. Moreover, the inhibition (as a rule, the relative decrease from the control value, in per cent) at 10 µM in assay [2] (read-out: inhibition of 5-HT uptake (no IC50), Table 3) is less than 50%.

As for `N[C@@H]1CC[C@@H](c2ccc(Cl)c(Cl)c2)c2ccccc21` (racemic) [P + Q, trans-4-(3,4-dichlorophenyl)-1,2,3,4-tetrahydro-1-naphthalenamine], the IC50 (as a rule, the concentration that gives 50% inhibition) in assay [1] turned out to be 0.0071 µM; in assay [3] it was 0.0088 µM.

As to `O=CN[C@@H]1CC[C@@H](c2ccc(Cl)c(Cl)c2)c2ccccc21` [E, (R,S/S,R) N-[4-(3,4-dichlorophenyl)-1,2,3,4-tetrahydronaphthalen-1-yl]formamide], the “Dunnett, significance vs vehicle” value is “*” in assay [4] (10 mg/kg, N = 10) and “*” in assay [4] (50 mg/kg, N = 10). For the same compound, the “Immobility Duration (sec.), individual mice” value in assay [4] (setting [6]) was 59 s and 162 s and 131 s and 22 s and 167 s and 58 s and 135 s and 122 s and 164 s and 50 s; in assay [4] (setting [7]) it was 15 sec. (2×) and 0 sec. (3×) and 98 sec. and 34 sec. and 59 sec. and 25 sec. and 63 sec. Further, the “Immobility Duration, Mean ± sem” value came to 107 s in assay [4] (setting [6]) and 31 s in assay [4] (setting [7]). Moreover, the IC50 was determined as 0.51 µM in assay [1]; 7.5 µM in assay [2] (rat synaptosomes, [3H]5-hydroxytryptamine, 15 min at 37° C.); 0.4 µM in assay [3].

In the case of `CC(NC(C)(C)C)C(=O)c1cccc(Cl)c1` (stereo not drawn) [bupropion, reference compound], in assay [3], the IC50 amounted to 0.611 µM.

Take `CNCCCC1c2ccccc2C=Cc2ccccc21` [protriptyline, reference compound]: the inhibition at 10 µM in assay [1] is less than 50%.

Turning to `N[C@@H]1CC[C@@H](c2ccc(Cl)c(Cl)c2)c2ccccc21` [P, (1R,4S)-trans 4-(3,4-dichlorophenyl)-1,2,3,4-tetrahydro-1-naphthalenamine], in assay [3], the IC50 is 0.0096 µM.

For `Fc1ccc(C(OCCN2CCN(CCCc3ccccc3)CC2)c2ccc(F)cc2)cc1` [GBR 12909, reference compound], in assay [2] (read-out: inhibition of 5-HT uptake (no IC50), Table 1), the inhibition at 10 µM is less than 50%.

Regarding `CN(C)CCCN1c2ccccc2CCc2ccccc21` [imipramine, reference compound], the “Dunnett, significance vs vehicle” value in assay [4] (10 mg/kg, N = 10) is on record as “*”. In addition, in assay [4] (setting [6]), the “Immobility Duration (sec.), individual mice” value was 28 sec. and 156 sec. and 98 sec. and 0 sec. (2×) and 63 sec. and 30 sec. and 56 sec. and 116 sec. and 64 sec; the “Immobility Duration, Mean ± sem” value amounted to 61 s. The inhibition at 10 µM in assay [1] is less than 50%.

`N[C@H]1CC[C@H](c2ccc(Cl)c(Cl)c2)c2ccccc21` [Q, (1S,4R)-trans 4-(3,4-dichlorophenyl)-1,2,3,4-tetrahydro-1-naphthalenamine] yielded an IC50 in assay [3] of 0.035 µM.

With `N[C@H]1CC[C@@H](c2ccc(Cl)c(Cl)c2)c2ccccc21` [norsertraline, (1S,4S)-cis 4-(3,4-dichlorophenyl)-1,2,3,4-tetrahydro-1-naphthalenamine], the “neurological activity as stated in literature reports” value in assay [5] is “neurologically inactive”.
